Patent US10314894B2, “Treatment of cardio-renal disease using PCSK6” (THE CLEVELAND CLINIC FOUNDATION, priority 2014, dated 2019)
Peptide text beside a SMILES is read from it.

System: corin activation cleavage
Experiment: Protease inhibitors on corin activation cleavage in HEK293 cells expressing corin (Western blotting)
Type: cell-based, human
Details: 24 h, transfected HEK293 cells
Experimental: HEK293 cells were cultured in DMEM with 10% fetal bovine serum (FBS). HL-1 cardiomyocytes were cultured in Claycomb medium with 10% FBS, and 4 mM L-glutamine. All cells were cultured at 37° C. in humidified incubators with 5% CO2.
HEK293 and HL-1 cells were transfected with corin or PCSK6 expression plasmids. After 48-72 h, cells were lysed in a buffer containing 25 mM Tris-HCl, pH 7.4, 150 mM NaCl, 1 mM EDTA, 1% (v/v) NP-40, and 1% (v/v) protease inhibitor cocktail. Recombinant corin and PCSK6 proteins were immunoprecipitated with an anti-V5 or anti-flag antibody. Western blotting was carried out to analyze corin expression and activation or PCSK6 expression with or without reducing agents. Percentage of corin activation (corin-p vs. corin fragments) was quantified by densitometric analysis of Western blots.
To identify the corin activator, corin activation cleavage was examined in HEK293 and HL-1 cells expressing corin in the presence of protease inhibitors including benzamidine (5 mM), GM6001 (50 μM), dec-RVKR-cmk (20 μM), or ALLM (N-acetyl-leucyl-leucyl-methionine 50 μM). Liao et al., J Biol Chem 282, 27728-27735 (2007). The inhibitors were added to the cells in separate wells. After 24 h, cell lysates were prepared and corin protein was analyzed by Western blotting.

Structure (SMILES): CCCCCCCCCC(=O)N[C@@H](CCCN=C(N)N)C(=O)N[C@H](C(=O)N[C@@H](CCCCN)C(=O)N[C@@H](CCCN=C(N)N)C(=O)CCl)C(C)C [dec-RVKR-cmk] (HELM PEPTIDE1{[CCCCCCCCCC(=O)[*:2]].R.V.K.R.[ClC[*:1]]}$$$$V2.0)
- corin activation (~40-kDa band reduced, ~190-kDa zymogen band increased) (dec-RVKR-cmk 20 μM): corin activation was inhibited
- corin activation (~40-kDa band reduced, ~190-kDa zymogen band increased) (dec-RVKR-cmk 20 μM, listed as RVKR-cmk): corin activation cleavage was inhibited

Structure (SMILES): N=C(N)c1ccccc1 [benzamidine]
- corin activation (~40-kDa band reduced, ~190-kDa zymogen band increased) (benzamidine 5 mM): corin activation cleavage was inhibited
